What was measured:
RPMI-8226 = experiment: NCI 60 cell line panel screen (SRB); assay type: cell-based, human
HOP-62 = experiment: NCI 60 cell line panel screen (SRB); assay type: cell-based, human
CAKI-1 = experiment: NCI 60 cell line panel screen (SRB); assay type: cell-based, human
SK-MEL-28 = experiment: NCI 60 cell line panel screen (SRB); assay type: cell-based, human
COLO 205 = experiment: NCI 60 cell line panel screen (SRB); assay type: cell-based, human
NCI-H460 = experiment: NCI 60 cell line panel screen (SRB); assay type: cell-based, human
UACC-257 = experiment: NCI 60 cell line panel screen (SRB); assay type: cell-based, human
MDA-MB231/ATCC = experiment: NCI 60 cell line panel screen (SRB); assay type: cell-based, human
HCT-116 = experiment: NCI 60 cell line panel screen (SRB); assay type: cell-based, human
K-562 = experiment: NCI 60 cell line panel screen (SRB); assay type: cell-based, human
SNB-75 = experiment: NCI 60 cell line panel screen (SRB); assay type: cell-based, human
NCI/ADR-RES = experiment: NCI 60 cell line panel screen (SRB); assay type: cell-based, human
NCI-H522 = experiment: NCI 60 cell line panel screen (SRB); assay type: cell-based, human
SK-OV-3 = experiment: NCI 60 cell line panel screen (SRB); assay type: cell-based, human
HCT-15 = experiment: NCI 60 cell line panel screen (SRB); assay type: cell-based, human
SF-268 = experiment: NCI 60 cell line panel screen (SRB); assay type: cell-based, human
786-0 = experiment: NCI 60 cell line panel screen (SRB); assay type: cell-based, human
HT29 = experiment: NCI 60 cell line panel screen (SRB); assay type: cell-based, human
MDA-MB-435 = experiment: NCI 60 cell line panel screen (SRB); assay type: cell-based, human; conditions: MDA-MB-435 (Breast Cancer)
A549/ATCC = experiment: NCI 60 cell line panel screen (SRB); assay type: cell-based, human
M14 = experiment: NCI 60 cell line panel screen (SRB); assay type: cell-based, human
MALME-3M = experiment: NCI 60 cell line panel screen (SRB); assay type: cell-based, human
MCF7 = experiment: NCI 60 cell line panel screen (SRB); assay type: cell-based, human
EKVX = experiment: NCI 60 cell line panel screen (SRB); assay type: cell-based, human
[1] = tested on: chloroquine-sensitive P. falciparum (NF54); experiment: Antimalarial activity in vitro, [3H]hypoxanthine incorporation; assay type: cell-based; conditions: Table I; NF54 strain; read-out: IC50

For `CC1CCC2C(C)C(CC(COC(=O)CCC(=O)O)CC3OC4OC5(C)CCC6C(C)CCC(C3C)C46OO5)OC3OC4(C)CCC1C32OO4` (stereo not drawn) [Compound 8a, bis-trioxane primary succinate monoester], the Log10GI50 (RPMI-8226; Leukemia, RPMI-8226) was under −8.30, the Log10LC50 (RPMI-8226; RPMI-8226 (Leukemia), LC50: PG=−50) was over −4.30 log10M and the Log10TGI50 (RPMI-8226; RPMI-8226 (Leukemia), TGI: PG=0) was −6.19 log10M. For the same compound, the Log10LC50 (HOP-62; HOP-62 (Non-Small Cell Lung Cancer), LC50: PG=−50) was over −4.30 log10M, the Log10TGI50 (HOP-62; HOP-62 (Non-Small Cell Lung Cancer), TGI: PG=0) was over −4.30 log10M and the Log10GI50 (HOP-62; Non-Small Cell Lung Cancer, HOP-62) was −6.34. It also gave a Log10LC50 (CAKI-1; CAKI-1 (Renal Cancer), LC50: PG=−50) of over −4.30 log10M, a Log10TGI50 (CAKI-1; CAKI-1 (Renal Cancer), TGI: PG=0) of over −5.99 log10M and a Log10GI50 (CAKI-1; Renal Cancer, CAKI-1) of −6.84. For the same compound, the Log10GI50 (SK-MEL-28; Melanoma, SK-MEL-28) was −6.09, the Log10LC50 (SK-MEL-28; SK-MEL-28 (Melanoma), LC50: PG=−50) was over −4.30 log10M and the Log10TGI50 (SK-MEL-28; SK-MEL-28 (Melanoma), TGI: PG=0) was over −4.30 log10M. The Log10LC50 (COLO 205; COLO 205 (Colon Cancer), LC50: PG=−50) was 4.78 log10M, the Log10TGI50 (COLO 205; COLO 205 (Colon Cancer), TGI: PG=0) was −6.29 log10M and the Log10GI50 (COLO 205; Colon Cancer, COLO 205) was under −8.30. It also gave a Log10LC50 (NCI-H460; NCI-H460 (Non-Small Cell Lung Cancer), LC50: PG=−50) of over −4.30 log10M, a Log10TGI50 (NCI-H460; NCI-H460 (Non-Small Cell Lung Cancer), TGI: PG=0) of over −4.30 log10M and a Log10GI50 (NCI-H460; Non-Small Cell Lung Cancer, NCI-H460) of under −8.30. The Log10GI50 (UACC-257; Melanoma, UACC-257) was −5.02, the Log10LC50 (UACC-257; UACC-257 (Melanoma), LC50: PG=−50) was over −4.30 log10M and the Log10TGI50 (UACC-257; UACC-257 (Melanoma), TGI: PG=0) was over −4.30 log10M. For the same compound, the Log10GI50 (MDA-MB231/ATCC; Breast Cancer, MDA-MB231/ATCC) was −7.19, the Log10LC50 (MDA-MB231/ATCC; MDA-MB231/ATCC (Breast Cancer), LC50: PG=−50) was over −4.30 log10M and the Log10TGI50 (MDA-MB231/ATCC; MDA-MB231/ATCC (Breast Cancer), TGI: PG=0) was −6.35 log10M. For the same compound, the Log10GI50 (HCT-116; Colon Cancer, HCT-116) was under −8.30, the Log10LC50 (HCT-116; HCT-116 (Colon Cancer), LC50: PG=−50) was over −4.30 log10M and the Log10TGI50 (HCT-116; HCT-116 (Colon Cancer), TGI: PG=0) was over −4.30 log10M. For the same compound, the Log10LC50 (K-562; K-562 (Leukemia), LC50: PG=−50) was over −4.30 log10M, the Log10TGI50 (K-562; K-562 (Leukemia), TGI: PG=0) was over −4.30 log10M and the Log10GI50 (K-562; Leukemia, K-562) was under −8.30. The Log10GI50 (SNB-75; CNS Cancer, SNB-75) was −6.47, the Log10LC50 (SNB-75; SNB-75 (CNS Cancer), LC50: PG=−50) was over −4.30 log10M and the Log10TGI50 (SNB-75; SNB-75 (CNS Cancer), TGI: PG=0) was over −4.30 log10M. For the same compound, the Log10GI50 (NCI/ADR-RES; Breast Cancer, NCI/ADR-RES) was −5.64, the Log10LC50 (NCI/ADR-RES; NCI/ADR-RES (Breast Cancer), LC50: PG=−50) was over −4.30 log10M and the Log10TGI50 (NCI/ADR-RES; NCI/ADR-RES (Breast Cancer), TGI: PG=0) was over −4.30 log10M. The Log10TGI50 (NCI-H522; NCI-H522 (Non-Small Cell Lung Cancer), TGI: PG=0) was over −4.30 log10M, the Log10LC50 (NCI-H522; NCI-H-522 (Non-Small Cell Lung Cancer), LC50: PG=−50) was over −4.30 log10M and the Log10GI50 (NCI-H522; Non-Small Cell Lung Cancer, NCI-H522) was −6.16. It also gave a Log10GI50 (SK-OV-3; Ovarian Cancer, SK-OV-3) of −4.89, a Log10LC50 (SK-OV-3; SK-OV-3 (Ovarian Cancer), LC50: PG=−50) of over −4.30 log10M and a Log10TGI50 (SK-OV-3; SK-OV-3 (Ovarian Cancer), TGI: PG=0) of over −4.30 log10M. It also gave a Log10GI50 (HCT-15; Colon Cancer, HCT-15) of under −8.30, a Log10LC50 (HCT-15; HCT-15 (Colon Cancer), LC50: PG=−50) of over −4.30 log10M and a Log10TGI50 (HCT-15; HCT-15 (Colon Cancer), TGI: PG=0) of −5.61 log10M. It also gave a Log10GI50 (SF-268; CNS Cancer, SF-268) of −7.11, a Log10LC50 (SF-268; SF-268 (CNS Cancer), LC50: PG=−50) of over −4.30 log10M and a Log10TGI50 (SF-268; SF-268 (CNS Cancer), TGI: PG=0) of over −4.30 log10M. It also gave a Log10LC50 (786-0; 786-0 (Renal Cancer), LC50: PG=−50) of over −4.30 log10M, a Log10TGI50 (786-0; 786-0 (Renal Cancer), TGI: PG=0) of over −4.30 log10M and a Log10GI50 (786-0; Renal Cancer, 786-0) of −6.45. It also gave a Log10GI50 (HT29; Colon Cancer, HT29) of under −8.30, a Log10LC50 (HT29; HT29 (Colon Cancer), LC50: PG=−50) of over −4.30 log10M and a Log10TGI50 (HT29; HT29 (Colon Cancer), TGI: PG=0) of over −4.30 log10M. For the same compound, the Log10LC50 (MDA-MB-435; LC50: PG=−50) was over −4.30 log10M, the Log10TGI50 (MDA-MB-435; TGI: PG=0) was over −4.30 log10M and the Log10LC50 (A549/ATCC; A549/ATCC (Non-Small Cell Lung Cancer), LC50: PG=−50) was over −4.30 log10M. For the same compound, the Log10TGI50 (A549/ATCC; A549/ATCC (Non-Small Cell Lung Cancer), TGI: PG=0) was over −4.30 log10M, the Log10GI50 (A549/ATCC; Non-Small Cell Lung Cancer, A549/ATCC) was −4.42 and the Log10LC50 (M14; M14 (Melanoma), LC50: PG=−50) was over −4.30 log10M. The Log10TGI50 (M14; M-14 (Melanoma), TGI: PG=0) was over −4.30 log10M, the Log10GI50 (M14; Melanoma, M14) was −6.94 and the Log10LC50 (MALME-3M; MALME-3M (Melanoma), LC50: PG=−50) was over −4.30 log10M. It also gave a Log10TGI50 (MALME-3M; MALME-3M (Melanoma), TGI: PG=0) of −6.82 log10M, a Log10GI50 (MALME-3M; Melanoma, MALME-3M) of under −8.30 and a Log10GI50 (MCF7; Breast Cancer, MCF7) of under −8.30. For the same compound, the Log10LC50 (MCF7; MCF7 (Breast Cancer), LC50: PG=−50) was over −4.30 log10M, the Log10TGI50 (MCF7; MCF7 (Breast Cancer), TGI: PG=0) was over −4.30 log10M and the Log10LC50 (EKVX; EKVX (Non-Small Cell Lung Cancer), LC50: PG=−50) was over −4.30 log10M. It also gave a Log10TGI50 (EKVX; EKVX (Non-Small Cell Lung Cancer), TGI: PG=0) of −5.47 log10M, a Log10GI50 (EKVX; Non-Small Cell Lung Cancer, EKVX) of −6.90 and an IC50 [1] of 2 nM.

— patent US7417156B2, “Orally active, antimalarial, anticancer, artemisinin-derived trioxane dimers” (Johns Hopkins University, priority 2002, dated 2008)
